Reference: patent publication US10588317B2, “Isoxazoline-substituted benzamides and analogues as insecticides” (priority 2015, dated 2020)
Read-outs that look alike come from different tables or passages of the source.

How the values were obtained:
Type in all cases: in vivo
Diabrotica balteata = Diabrotica balteata (corn root worm), sprayed maize sprouts; details: 96 h, read-out: effect in at least one of the two categories (mortality or growth inhibition); for percent effect (mortality or growth inhibition) at 200 ppm: application rate 200 ppm, L2 larvae, 4 days after infestation
Summary of the method: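 Maize sprouts on agar sprayed with aqueous dilutions of DMSO stocks, dried, then infested with L2 larvae (6–10 per well). Mortality and growth inhibition scored against untreated controls 4 days after infestation, at 200 ppm application rate.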

Euschistus heros = Euschistus heros (neotropical brown stink bug), sprayed soybean leaves; details: 120 h, read-out: effect in at least one of the two categories (mortality or growth inhibition); for percent effect (mortality or growth inhibition) at 200 ppm: application rate 200 ppm, N2 nymphs, 5 days after infestation
Summary of the method: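 Soybean leaves on agar sprayed with aqueous dilutions of DMSO stocks, dried, then infested with N2 nymphs. Mortality and growth inhibition scored against untreated samples 5 days after infestation; application rate 200 ppm.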

Myzus persicae = Myzus persicae (green peach aphid): feeding/contact activity; details: 144 h
Experimental: (§1) Sunflower leaf discs were placed onto agar in a 24-well microtiter plate and sprayed with aqueous test solutions prepared from 10'000 ppm DMSO stock solutions. After drying, the leaf discs were infested with an aphid population of mixed ages. The samples were assessed for mortality 6 days after infestation.

Plutella xylostella = Plutella xylostella (diamond back moth), artificial diet; details: 120 h, read-out: effect in at least one of the two categories (mortality or growth inhibition); for percent effect (mortality or growth inhibition) at 200 ppm: application rate 200 ppm, L2 larvae, 5 days after infestation
Summary of the method: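 Artificial diet in 24-well plates treated with aqueous test solutions made from 10'000 ppm DMSO stocks, dried, then infested with L2 larvae (10 to 15 per well). Mortality and growth inhibition scored against untreated samples 5 days after infestation; activity cut-off at least 80% in either category at 200 ppm.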

Spodoptera littoralis = Spodoptera littoralis (Egyptian cotton leaf worm), sprayed cotton leaf discs; details: foliar, 72 h, read-out: control (mortality, anti-feeding effect, growth inhibition)
Summary of the method: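 Cotton leaf discs on agar sprayed with aqueous test solutions made from 10'000 ppm DMSO stock; after drying, infested with five L1 larvae. Mortality, anti-feeding and growth inhibition scored versus untreated samples 3 days after infestation; control counted when any category exceeds untreated.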

Tetranychus urticae = Tetranychus urticae (two-spotted spider mite): feeding/contact activity; details: 192 h
Experimental: Bean leaf discs on agar in 24-well microtiter plates were sprayed with aqueous test solutions prepared from 10'000 ppm DMSO stock solutions. After drying the leaf discs were infested with a mite population of mixed ages. The samples were assessed for mortality on mixed population (mobile stages) 8 days after infestation.

Thrips tabaci = Thrips tabaci (onion thrips): feeding/contact activity; details: 144 h
Experimental: as §1, with “on” for “onto”, “in” for “in a”, “plates” for “plate”, “drying” for “drying,”, “a Thrips” for “an aphid”

[1] = application rate 200 ppm, aphid population of mixed ages, 6 days after infestation, read-out: mortality
[2] = application rate 200 ppm, L1 larvae, 3 days after infestation
[3] = application rate 200 ppm, mixed population (mobile stages), 8 days after infestation, read-out: mortality
[4] = application rate 200 ppm, Thrips population of mixed ages, 6 days after infestation, read-out: mortality

Cc1cc(C2=NO[C@](c3cc(Cl)cc(Cl)c3)(C(F)(F)F)C2)ccc1C(=O)N[C@@H]1CON(S(=O)(=O)C(F)F)C1 [Compound A232, 4-[(5R)-5-(3,5-dichlorophenyl)-5-(trifluoromethyl)-4H-1,2-oxazol-3-yl]-N-[(4S)-2-(difluoromethylsulfonyl)-1,2-oxazolidin-4-yl]-2-methylbenzamide]
≥ 80%: percent effect (mortality or growth inhibition) at 200 ppm (Diabrotica balteata) | percent effect (mortality or growth inhibition) at 200 ppm (Euschistus heros) | mortality at 200 ppm (Myzus persicae; [1]) | percent effect (mortality or growth inhibition) at 200 ppm (Plutella xylostella) | mortality at 200 ppm (Spodoptera littoralis; [2]) | mortality at 200 ppm (Tetranychus urticae; [3]) | mortality at 200 ppm (Thrips tabaci; [4])

Cc1cc(C(F)(F)F)cc([C@@]2(C(F)(F)F)CC(c3ccc(C(=O)N[C@@H]4CON(S(C)(=O)=O)C4)c(C)c3)=NO2)c1 [Compound A212]
≥ 80%: percent effect (mortality or growth inhibition) at 200 ppm (Diabrotica balteata) | percent effect (mortality or growth inhibition) at 200 ppm (Euschistus heros) | mortality at 200 ppm (Myzus persicae; [1]) | percent effect (mortality or growth inhibition) at 200 ppm (Plutella xylostella) | mortality at 200 ppm (Spodoptera littoralis; [2]) | mortality at 200 ppm (Tetranychus urticae; [3]) | mortality at 200 ppm (Thrips tabaci; [4])

Cc1cc(C2=NO[C@@](c3cc(Cl)cc(Cl)c3)(C(F)(F)F)C2)ccc1C(=O)N[C@@H]1CON(S(N)(=O)=O)C1 [Compound A178, 4-[(5S)-5-(3,5-dichlorophenyl)-5-(trifluoromethyl)-4H-1,2-oxazol-3-yl]-2-methyl-N-[(4S)-2-sulfamoyl-1,2-oxazolidin-4-yl]benzamide]
≥ 80%: percent effect (mortality or growth inhibition) at 200 ppm (Diabrotica balteata) | percent effect (mortality or growth inhibition) at 200 ppm (Euschistus heros) | mortality at 200 ppm (Myzus persicae; [1]) | percent effect (mortality or growth inhibition) at 200 ppm (Plutella xylostella) | mortality at 200 ppm (Spodoptera littoralis; [2]) | mortality at 200 ppm (Tetranychus urticae; [3]) | mortality at 200 ppm (Thrips tabaci; [4])

Cc1cc(C2=NO[C@@](c3cc(Cl)c(F)c(Cl)c3)(C(F)(F)F)C2)ccc1C(=O)N[C@H]1CON(S(=O)(=O)C(F)F)C1 [Compound A226, 4-[(5S)-5-(3,5-dichloro-4-fluorophenyl)-5-(trifluoromethyl)-4H-1,2-oxazol-3-yl]-N-[(4R)-2-(difluoromethylsulfonyl)-1,2-oxazolidin-4-yl]-2-methylbenzamide]
≥ 80%: percent effect (mortality or growth inhibition) at 200 ppm (Diabrotica balteata) | percent effect (mortality or growth inhibition) at 200 ppm (Euschistus heros) | mortality at 200 ppm (Myzus persicae; [1]) | percent effect (mortality or growth inhibition) at 200 ppm (Plutella xylostella) | mortality at 200 ppm (Spodoptera littoralis; [2]) | mortality at 200 ppm (Tetranychus urticae; [3]) | mortality at 200 ppm (Thrips tabaci; [4])

C#CCN(C(=O)OC(C)(C)C)S(=O)(=O)N1C[C@@H](NC(=O)c2ccc(C3=NO[C@@](c4cc(Cl)cc(Cl)c4)(C(F)(F)F)C3)cc2Cl)CO1 [Compound A152]
≥ 80%: percent effect (mortality or growth inhibition) at 200 ppm (Diabrotica balteata) | percent effect (mortality or growth inhibition) at 200 ppm (Euschistus heros) | mortality at 200 ppm (Myzus persicae; [1]) | percent effect (mortality or growth inhibition) at 200 ppm (Plutella xylostella) | mortality at 200 ppm (Spodoptera littoralis; [2]) | mortality at 200 ppm (Tetranychus urticae; [3]) | mortality at 200 ppm (Thrips tabaci; [4])

Cc1cc(C2=NO[C@](c3cc(Cl)c(F)c(Cl)c3)(C(F)(F)F)C2)ccc1C(=O)N[C@H]1CON(S(=O)(=O)CF)C1 [Compound A211]
≥ 80%: percent effect (mortality or growth inhibition) at 200 ppm (Diabrotica balteata) | percent effect (mortality or growth inhibition) at 200 ppm (Euschistus heros) | mortality at 200 ppm (Myzus persicae; [1]) | percent effect (mortality or growth inhibition) at 200 ppm (Plutella xylostella) | mortality at 200 ppm (Spodoptera littoralis; [2]) | mortality at 200 ppm (Tetranychus urticae; [3]) | mortality at 200 ppm (Thrips tabaci; [4])

Cc1cc(C2=NO[C@](c3cc(Cl)c(F)c(Cl)c3)(C(F)(F)F)C2)ccc1C(=O)N[C@H]1CON(S(=O)(=O)NC(=O)OC(C)(C)C)C1 [Compound A209, tert-butyl N-[[(4R)-4-[[4-[(5R)-5-(3,5-dichloro-4-fluorophenyl)-5-(trifluoromethyl)-4H-1,2-oxazol-3-yl]-2-methylbenzoyl]amino]-1,2-oxazolidin-2-yl]sulfonyl]carbamate]
≥ 80%: percent effect (mortality or growth inhibition) at 200 ppm (Diabrotica balteata) | percent effect (mortality or growth inhibition) at 200 ppm (Euschistus heros) | mortality at 200 ppm (Myzus persicae; [1]) | percent effect (mortality or growth inhibition) at 200 ppm (Plutella xylostella) | mortality at 200 ppm (Spodoptera littoralis; [2]) | mortality at 200 ppm (Tetranychus urticae; [3]) | mortality at 200 ppm (Thrips tabaci; [4])

Cc1cc(C2=NO[C@](c3cc(Cl)cc(Cl)c3)(C(F)(F)F)C2)ccc1C(=O)N[C@H]1CON(S(=O)(=O)CCl)C1 [Compound A166, N-[(4R)-2-(chloromethylsulfonyl)-1,2-oxazolidin-4-yl]-4-[(5R)-5-(3,5-dichlorophenyl)-5-(trifluoromethyl)-4H-1,2-oxazol-3-yl]-2-methylbenzamide]
≥ 80%: percent effect (mortality or growth inhibition) at 200 ppm (Diabrotica balteata) | percent effect (mortality or growth inhibition) at 200 ppm (Euschistus heros) | mortality at 200 ppm (Myzus persicae; [1]) | percent effect (mortality or growth inhibition) at 200 ppm (Plutella xylostella) | mortality at 200 ppm (Spodoptera littoralis; [2]) | mortality at 200 ppm (Tetranychus urticae; [3]) | mortality at 200 ppm (Thrips tabaci; [4])

CCNS(=O)(=O)N1C[C@@H](NC(=O)c2ccc(C3=NO[C@@](c4cc(Cl)c(F)c(Cl)c4)(C(F)(F)F)C3)cc2Cl)CO1 [Compound A124, 2-chloro-4-[(5S)-5-(3,5-dichloro-4-fluoro-phenyl)-5-(trifluoromethyl)-4H-isoxazol-3-yl]-N-[(4R)-2-(ethylsulfamoyl)isoxazolidin-4-yl]benzamide]
≥ 80%: percent effect (mortality or growth inhibition) at 200 ppm (Diabrotica balteata) | percent effect (mortality or growth inhibition) at 200 ppm (Euschistus heros) | mortality at 200 ppm (Myzus persicae; [1]) | percent effect (mortality or growth inhibition) at 200 ppm (Plutella xylostella) | mortality at 200 ppm (Spodoptera littoralis; [2]) | mortality at 200 ppm (Tetranychus urticae; [3]) | mortality at 200 ppm (Thrips tabaci; [4])

CCS(=O)(=O)N1CC(NC(=O)c2ccc(C3=NO[C@@](c4cc(Cl)c(Cl)c(Cl)c4)(C(F)(F)F)C3)cc2Br)CO1 (stereo partly drawn) [Compound A43, 2-bromo-N-(2-ethylsulfonylisoxazolidin-4-yl)-4-[(5S)-5-(3,4,5-trichlorophenyl)-5-(trifluoromethyl)-4H-isoxazol-3-yl]benzamide]
≥ 80%: percent effect (mortality or growth inhibition) at 200 ppm (Diabrotica balteata) | percent effect (mortality or growth inhibition) at 200 ppm (Euschistus heros) | mortality at 200 ppm (Myzus persicae; [1]) | percent effect (mortality or growth inhibition) at 200 ppm (Plutella xylostella) | mortality at 200 ppm (Spodoptera littoralis; [2]) | mortality at 200 ppm (Tetranychus urticae; [3]) | mortality at 200 ppm (Thrips tabaci; [4])

Cc1cc(C2=NO[C@@](c3cc(F)cc(C(F)(F)F)c3)(C(F)(F)F)C2)ccc1C(=O)N[C@@H]1CON(S(C)(=O)=O)C1 [Compound A172]
≥ 80%: percent effect (mortality or growth inhibition) at 200 ppm (Diabrotica balteata) | percent effect (mortality or growth inhibition) at 200 ppm (Euschistus heros) | mortality at 200 ppm (Myzus persicae; [1]) | percent effect (mortality or growth inhibition) at 200 ppm (Plutella xylostella) | mortality at 200 ppm (Spodoptera littoralis; [2]) | mortality at 200 ppm (Tetranychus urticae; [3]) | mortality at 200 ppm (Thrips tabaci; [4])

Cc1cc(C2=NO[C@@](c3cc(Cl)cc(C(F)(F)F)c3)(C(F)(F)F)C2)ccc1C(=O)N[C@@H]1CON(S(=O)(=O)C(F)F)C1 [Compound A233]
≥ 80%: percent effect (mortality or growth inhibition) at 200 ppm (Diabrotica balteata) | percent effect (mortality or growth inhibition) at 200 ppm (Euschistus heros) | mortality at 200 ppm (Myzus persicae; [1]) | percent effect (mortality or growth inhibition) at 200 ppm (Plutella xylostella) | mortality at 200 ppm (Spodoptera littoralis; [2]) | mortality at 200 ppm (Tetranychus urticae; [3]) | mortality at 200 ppm (Thrips tabaci; [4])

Cc1cc(C2=NO[C@@](c3cc(Cl)c(F)c(Cl)c3)(C(F)(F)F)C2)ccc1C(=O)N[C@@H]1CON(S(=O)(=O)F)C1 [Compound A213, (4S)-4-[[4-[(5S)-5-(3,5-dichloro-4-fluorophenyl)-5-(trifluoromethyl)-4H-1,2-oxazol-3-yl]-2-methylbenzoyl]amino]-1,2-oxazolidine-2-sulfonyl fluoride]
≥ 80%: percent control (mortality or growth inhibition) at 200 ppm (Diabrotica balteata) | percent control (mortality or growth inhibition) at 200 ppm (Euschistus heros) | mortality at 200 ppm (Myzus persicae) | percent control (mortality or growth inhibition) at 200 ppm (Plutella xylostella) | mortality at 200 ppm (Spodoptera littoralis) | mortality at 200 ppm (Tetranychus urticae) | mortality at 200 ppm (Thrips tabaci)

Cc1cc(C2=NO[C@](c3cc(Cl)c(F)c(Cl)c3)(C(F)(F)F)C2)ccc1C(=O)N[C@@H]1CON(S(=O)(=O)C(F)(F)F)C1 [Compound A223, 4-[(5R)-5-(3,5-dichloro-4-fluorophenyl)-5-(trifluoromethyl)-4H-1,2-oxazol-3-yl]-2-methyl-N-[(4S)-2-(trifluoromethylsulfonyl)-1,2-oxazolidin-4-yl]benzamide]
≥ 80%: percent effect (mortality or growth inhibition) at 200 ppm (Diabrotica balteata) | percent effect (mortality or growth inhibition) at 200 ppm (Euschistus heros) | mortality at 200 ppm (Myzus persicae; [1]) | percent effect (mortality or growth inhibition) at 200 ppm (Plutella xylostella) | mortality at 200 ppm (Spodoptera littoralis; [2]) | mortality at 200 ppm (Tetranychus urticae; [3]) | mortality at 200 ppm (Thrips tabaci; [4])
